The values that follow come from patent US11945862B2, “Compositions and methods for antibody production” (ImmunoGen, Inc., priority 2017, dated 2024).

The test system of one data set is CHO cells. Put plainly: Viability of CHO cells after 1 day treatment. Particulars: for viability count using trypan blue: antibody-producing CHO cells, about two weeks continuous culture, control 63.8%.
The subject of another data set is Humanized IgG2 antibody. In words: IgG2 disulfide reduction by CHO cell lysate, DTNB thiol assay. The data set is classed as biochemical. Conditions: 1 mM agent, 40% v/v CHO cell lysate, 5 hours, pH 7; control 0.84. The protocol: Humanized IgG2 antibody (1 mg/ml; final concentration) was incubated with 40% v/v CHO cell lysate (˜40 million cells lysed with 0.4 ml RIPA buffer and debris removed by centrifugation) in a total volume of 1 ml. The control sample was adjusted to pH 7 and rotated at RT for 5 hours with 100 μl protein A beads. […] After the incubation time of 5 hours, the supernatant was removed and the beads were washed three times with 10 ml PBS before the thiol amount of the immobilized antibody was analyzed by adding 0.5 mM DTNB and measuring the absorbance at 412 nm.

The subject of data set [1] is M9346A antibody. The class given is biochemical. Conditions: 1 mM additive, 100 μM DTT, 37° C., 1 h; control 80%.
Another data set deals with humanized N901 antibody. In words: Antibody disulfide reduction by CHO cell lysate (RIPA buffer), thiol/antibody by Ellman's assay. The class given is biochemical. Particulars: for decrease in antibody-disulfide reduction: versus control without agent. The protocol:
For all of the examples described below, cell damage was simulated by multiple freeze-thaw cycles of cells, by addition of RIPA buffer (50 mM Tris-HCl, pH 7.4, 1% NP-40, 0.5% sodium deoxycholate, 0.1% sodium dodecylsulfate), or by using microfluidizer. This damaged cell supernatant or lysate was then incubated with a buffered solution containing antibody with or without the anti-reduction agent being tested, following which the extent of the antibody-disulfide reduction was measured using Ellman's assay for thiol (P. W. Riddles, R. L. Blakeley, and B. Zerner, Methods Enzymol., 91, 49-60, 1983) or by non-reducing SDS protein LabChip analysis. The total thiol level present in the mixture of damaged cell supernatant/lysate was measured initially.
The effect of 1,2-naphthoquinone-4-sulfonic acid (NQS) on antibody-disulfide reduction was studied by incubating 1,2-naphthoquinone-4-sulfonic acid at several concentrations with antibody and damaged CHO lysate. The damaged CHO cell lysate was generated by the addition of 0.5 ml RIPA buffer (50 mM Tris-HCl, pH 7.4, 1% NP-40, 0.5% sodium deoxycholate, 0.1% sodium dodecylsulfate) to 100 million CHO cells. The thiol concentration in CHO cell lysate was measured by Ellman's assay as 2.1 mM.
Each sample contained pre-mixed 0.5 ml RIPA buffer (50 mM Tris-HCl, pH 7.4, 1% NP-40, 0.5% sodium deoxycholate, 0.1% sodium dodecylsulfate) with 1 mg humanized N901 antibody, with or without 1,2-naphthoquinone-4-sulfonic acid (25 micromolar, or 50 micromolar, or 100 micromolar), which was added to a cell pellet of 100 million CHO cells, and the resuspended cells were incubated at ambient temperature for 30 minutes, following which the cell debris were pelleted by centrifugation (16,000 g, 5 min). The supernatant from each sample was added to 50 microliter immobilized-Protein A beads (RepliGen) and rotated at ambient temperature for 3 hours, after which the supernatant was removed and the beads washed with PBS.
The thiol content of the immobilized antibody was determined by the addition of 0.6 ml of PBS containing 0.5 mM DTNB (Ellman's reagent) to the beads, rotation for about 10 minutes, centrifugation, and absorbance measurement of supernatant at 412 nm.
The effect of anthraquinone-2-sulfonic acid (AQS) on antibody-disulfide reduction was studied during co-incubation of anthraquinone-2-sulfonic acid with antibody and damaged CHO lysate. Each sample contained pre-mixed 1 ml RIPA buffer (50 mM Tris-HCl, pH 7.4, 1% NP-40, 0.5% sodium deoxycholate, 0.1% sodium dodecylsulfate) with 1 mg humanized N901 antibody, with or without 0.2 mM anthraquinone-2-sulfonic acid (AQS), which was added to a cell pellet of 100 million CHO cells, and the resuspended cells were incubated at ambient temperature for 30 minutes, following which the cell debris were pelleted by centrifugation (16,000 g, 5 min). The thiol concentration in CHO cell lysate was 1 mM (Ellman's assay).
The supernatant from each sample was added to 50 microliter immobilized-Protein A beads (RepliGen) and rotated at ambient temperature for 3 hours, after which the supernatant was removed and the beads washed with PBS. The thiol content of the immobilized antibody was determined by the addition of 0.6 ml of PBS containing 0.5 mM DTNB (Ellman's reagent) to the beads, rotation for about 10 minutes, centrifugation, and absorbance measurement of supernatant at 412 nm.
In another experiment, 1 mg huN901 antibody was incubated with CHO lysate, with or without 0.4 mM anthraquinone-2-sulfonic acid for 4 hours. The mixture was then analyzed for thiol/antibody as above.
The thiol concentration in CHO cell lysate was 1 mM (Ellman's assay).
The supernatant from each sample was added to 50 microliter immobilized-Protein A beads (RepliGen) and rotated at ambient temperature for 3 hours, after which the supernatant was removed and the beads washed with PBS. […]

The next data set concerns humanized FOLR1 IgG1. Put plainly: Antibody fragmentation in HCCF treated with 20% (v/v) microfluidized CHO cells, non-reducing SDS-Protein Lab Chip. The class given is biochemical. Particulars: 1 mM of each additive, 6 h; control 78% fragmentation.
Data set [2] is described as follows: Redox potential of antibody solution with media additive over a range of DTT concentrations. Particulars: 1 mM additive, DTT 0.34 μM to 170 μM, 37° C., 1 h. The class given is physicochemical.
In a further data set the test system is humanized IgG4. Put plainly: IgG4 disulfide reduction by CHO cell lysate, DTNB thiol assay. The data set is classed as biochemical. Particulars: 1 mM agent, 30% v/v CHO cell lysate, 4 hours, pH 7; control 7.7. The procedure: All samples were adjusted to pH 7 and incubated with 200 μl protein A beads for 4 hours while rotating at room temperature. After the incubation the supernatant was removed and beads washed three times with 10 ml PBS. To analyze the thiol content of the protein A-bound IgG4 antibody, the beads were incubated with a 0.5 mM DTNB solution for 5 min and the absorbance of the supernatant measured at 412 nm.

Data set [3] deals with M9346A antibody. The data set is classed as biochemical. Conditions: 1 mM additive, conditions where control without additive was 100% fragmented. The procedure:
Antibody reduction was induced in a biological assay by adding cell lysate to purified monoclonal antibody. […]. Increasing amounts of CHO cell lysate were added to mimic different percentages of cell lysis, ranging from […]. Fresh NADPH was added to a concentration of 400 μM. The mixtures were incubated in a water bath at 37° C. for 1 h. Free thiols were alkylated by addition of 10% (v/v) of 50 mM N-ethyl-maleimide (NEM) solution. Samples were analyzed by non-reduced sodium dodecyl sulfate denaturing capillary electrophoresis (NR-CE-SDS).
To test the capacity for protection further, the stringency of the assay was increased. […].

Data set [4] concerns Humanized FOLR1 IgG1 antibody. Put plainly: Antibody disulfide reduction by CHO cell lysate (RIPA buffer), thiol per antibody by Ellman's assay. The class given is biochemical. A general note: Ellman's reagent forms a yellow product with free thiols.
Protocol: Lysates of CHO cells (˜60 million cells lysed in 0.6 ml RIPA buffer and clarified by centrifugation) were added to each of these mixtures. The pH values of all samples were adjusted to 7. […] The samples were incubated with 200 microliter immobilized-Protein A beads (RepliGen) and rotated at ambient temperature for 3 hours, after which the supernatant was removed and the beads washed with PBS. The thiol content of the immobilized antibody was determined by the addition of 0.2 ml of PBS containing 0.5 mM DTNB (Ellman's reagent) to the beads, rotation for about 10 minutes, centrifugation, and absorbance measurement of the supernatant at 412 nm.
The pH values of all samples were adjusted to 7. The samples were incubated with 200 microliter immobilized-Protein A beads (RepliGen) and rotated at ambient temperature for 3 hours, after which the supernatant was removed and the beads washed with PBS. The thiol content of the immobilized antibody was determined by the addition of 0.2 ml of PBS containing 0.5 mM DTNB (Ellman's reagent) to the beads, rotation for about 10 minutes, centrifugation, and absorbance measurement of the supernatant at 412 nm.
To test the effect of L-cystine bis(t-butyl ester) (CDBE) on protecting antibody disulfide bonds from reduction by CHO lysate, humanized FOLR1 IgG1 antibody (2 mg) was incubated with CHO lysate in RIPA buffer (0.6 ml lysate of 60 million CHO cells in 0.6 ml RIPA buffer, clarified by centrifugation) without or with 0.5 or 1 mM CDBE. The samples were rotated at ambient temperature with 200 microliter immobilized-Protein A beads (RepliGen) for 2 hours, after which the supernatant was removed and the beads washed with PBS. The thiol content of the immobilized antibody was determined by the addition of 0.2 ml of PBS containing 0.5 mM DTNB (Ellman's reagent) to the beads, centrifugation, and absorbance measurement of the supernatant at 412 nm.
The samples were rotated at ambient temperature with 200 microliter immobilized-Protein A beads (RepliGen) for 2 hours, after which the supernatant was removed and the beads washed with PBS. The thiol content of the immobilized antibody was determined by the addition of 0.2 ml of PBS containing 0.5 mM DTNB (Ellman's reagent) to the beads, centrifugation, and absorbance measurement of the supernatant at 412 nm.
Data set [5] concerns recombinant humanized IgG1 antibody. In words: Antibody fragmentation in thawed HCCF under nitrogen or air with CDME, non-reducing SDS-Protein Lab Chip. The data set is classed as biochemical. The procedure:
A CHO cell culture producing recombinant humanized IgG1 antibody was subjected to centrifugation and the resulting harvest cell culture fluid (HCCF) was frozen at −80° C. […] At various time points, samples were quenched with N-ethylmaleimide (NEM), purified using immobilized Protein A, and analyzed for fragments using non-reducing SDS-Protein Lab Chip electrophoresis. […] In contrast, the sample overlayed with air became less fragmented with time, reaching a plateau of about 25% fragmentation at 20 hours.

Data set [6] is described as follows: Reactivity of AQS with a model thiol, Ellman's assay of thiol groups. Particulars: 1 mM AQS with 1 mM cysteine ethyl ester, PBS, ambient temperature. The procedure:
In a separate experiment, the reactivity of anthraquinone-2-sulfonic acid (AQS) with a model thiol (L-cysteine ethyl ester) at ambient temperature was investigated by incubating 1 mM AQS with 1 mM cysteine ethyl ester at ambient temperature in PBS, using Ellman's assay of thiol groups to measure the extent of reaction. At time points of 1 hour, 2 hours, 3 hours, and 4 hours, the percent decrease in thiol values for the 1 mM AQS with 1 mM cysteine ethyl ester mixture versus thiol in a 1 mM cysteine ethyl ester (No AQS) control were 2%, 8%, 12%, and 20%, respectively.

For data set [7], the system named is Calu3 human lung cancer cells. In words: Cell viability, microscopic observation and Cell Titer Glo ATP assay. The class given is cell-based. Conditions: 1 day. The procedure: The effect of incubating cells with anthraquinone-2-sulfonic acid (AQS) was tested using Calu3 human lung cancer cells. Effects on cell viability were assayed by microscopic observation of cells and by ATP-based viability assay using Cell Titer Glo reagent (Promega).
(ATP-based viability assays read luminescence as a measure of living cells.)

The mark [8] stands for this setting: 0.4 mM agent alone, 4 hours, control 4.34.
The mark [9] stands for this setting: 2 mM agent, 3 hours, pH 7, lysate of ~40 million cells, control 0.95.

Regarding `COC(=O)[C@@H](N)CSSC[C@H](N)C(=O)OC` [CDME, L-cystine dimethyl ester], the “viability of CHO cells” value with CHO cells (0.75 mM, control 98.9%) is on record as 98.9%. The “reduced thiols per antibody” value with Humanized IgG2 antibody is “near-zero reduction”. The compound also yielded an intact antibody with M9346A antibody [1] of 100%. Besides, the thiol/antibody in the data set with humanized N901 antibody (0.05 mM agent, 3 hours, lysate thiol 1 mM, control 5.20) is on record as 2.75 thiol/antibody; in the data set with humanized N901 antibody (0.1 mM agent, 3 hours, lysate thiol 1 mM, control 5.20), 1.85 thiol/antibody; in the data set on humanized N901 antibody (0.2 mM agent, 3 hours, lysate thiol 1 mM, control 5.20), 1.56 thiol/antibody; in the data set with humanized N901 antibody (setting [8]), 1.37 thiol/antibody; in the data set on humanized N901 antibody (0.5 mM agent, 3 hours, lysate thiol 1 mM, control 5.20), 1.19 thiol/antibody; with humanized N901 antibody (0.75 mM agent, 4° C. overnight, control 2.29), 0.96 thiol/antibody. The “fragmentation compared with no additive control” value in the data set with humanized FOLR1 IgG1 is given as “much lower fragmentations”. For the same compound, in data set [2], the “modulation of redox potential” value was “constant redox potential across all DTT concentrations”. In addition, the “thiol groups per antibody” value in the data set with humanized IgG4 turned out to be 0.004 thiol groups per antibody. Further, in the data set on M9346A antibody [3], the “protection at increased assay stringency” value was “protective of disulfide reduction”. For the same compound, the “decrease in disulfide reduction compared to the control” value in data set [4] (2 mM agent, 100 mM phosphate buffer pH 7, 2 hours) was approximately 89%. The thiol per antibody is given as approximately 0.13 thiol per antibody in data set [4] (2 mM agent, 100 mM phosphate buffer pH 7, 2 hours, control 1.16); “about 0.02 thiol per antibody” in data set [4] (setting [9]); “about 0.25 thiol per antibody” in data set [4] (2 mM agent, 3 hours, pH 7, lysate of ~60 million cells, control 1.96). For the same compound, the “time the antibody was protected from reduction” value in data set [5] (1 mM CDME with nitrogen) was “up to 20 hours”; in [5] (2 mM CDME with nitrogen) it was not above 45 h. Also, the “expected protection against antibody disulfide bond reduction” value in [5] (combination of oxygen sparging with CDME) is listed as “highly effective”. The “fragmentation with air overlay plus agent versus air overlay alone” value in data set [5] (~1 mM CDME with air overlay, up to 72 hours) is “lowered the fragmentation further throughout the course of the study”.
As for `CC(C)(C)OC(=O)[C@@H](N)CSSC[C@H](N)C(=O)OC(C)(C)C` [CDBE, L-cystine bis(t-butyl ester)], the “reduced thiols per antibody” value in the data set with Humanized IgG2 antibody is “near-zero reduction”. In addition, in the data set with humanized IgG4, the “thiol groups per antibody” value was “no reduced disulfides were detected”. Besides, the “decrease in disulfide reduction compared to the control” value is on record as “about 78%” in data set [4] (0.25 mM agent, another experiment); “about 93%” in data set [4] (0.5 mM agent, 2 hours); approximately 96% in data set [4] (1 mM agent, 2 hours); approximately 98% in data set [4] (2 mM agent, another experiment). Besides, the thiol per antibody entry was “about 0.16 thiol per antibody” in data set [4] (0.5 mM agent, 2 hours, control 2.26) and approximately 0.10 thiol per antibody in data set [4] (1 mM agent, 2 hours, control 2.26).
`O=C1c2ccccc2C(=O)c2cc(S(=O)(=O)O)ccc21` [AQS, anthraquinone-2-sulfonic acid]: the “viability count using trypan blue” value in the data set with CHO cells (0.25 mM) is on record as 66.2%; with CHO cells (0.5 mM), 64.8%; in the data set with CHO cells (0.75 mM), 61.7%. For the same compound, the “percent decrease in thiol versus No AQS control” value in data set [6] (1 hour) is 2%; in data set [6] (2 hours), 8%; in [6] (3 hours), 12%; in [6] (4 hours), 20%. For the same compound, the thiol/antibody in the data set on humanized N901 antibody (0.2 mM agent, 3 hours, lysate thiol 1 mM, control 4.86) stood at 2.46 thiol/antibody; in the data set with humanized N901 antibody (setting [8]), 1.65 thiol/antibody. Besides, the “decrease in antibody-disulfide reduction” value is 49% with humanized N901 antibody (0.2 mM agent, 3 hours) and 62% in the data set with humanized N901 antibody (0.4 mM agent, 4 hours). Moreover, the “fragmentation compared with no additive control” value in the data set on humanized FOLR1 IgG1 was “much lower fragmentations”. In addition, the “Cell Titer Glo luminescence relative to control cells” value in data set [7] (0.25 mM) is 100%; in [7] (0.5 mM) it was 85%. For the same compound, in data set [7] (0.25 and 0.5 mM), the “cytotoxic effects by microscopic observation” value was “no visible cytotoxic effects”. For the same compound, in [4] (setting [9]), the thiol per antibody entry was “about 0.18 thiol per antibody”.
